Read-outs that look alike come from different tables or passages of the source.
What was measured:
[1] = Calculation of Eu luminescence parameters (radiative lifetime, rate constants, efficiencies); assay type: physicochemical
Method: In this equation, the ηISC ηET term is termed the sensitization efficiency, ηsens (ηsens=ηISC ηET). All the luminescence parameters τR (the pure radiative luminescence lifetime), kR and knR (the radiative and non-radiative constant rate) can be deduced. These parameters were calculated for five of the octadentate complexes and the model complex that present only one species in solution at pH=7.4 and are reported in Table 6.

[2] = Luminescence quantum yield, emission and brightness in aqueous 0.1 M TRIS buffer; assay type: physicochemical; settings: for øTot: 0.1M TRIS buffer pH = 7.4; for Brightness: at maximum absorption, product of quantum yield and molar absorption coefficient, 0.1 M TRIS pH = 7.4; for overall quantum yield (in words): related to inner-sphere coordinated water
Method: Quantum Yield. Quantum yield will be measured using established methods. Fluorescence quantum yield Q are measured in diluted solution with an optical density lower than 0.1 using the following equation Qx/Qr=[Ar(λr)/Ax(λx)][nx^2/nr^2][Dx/Dr] were A is the absorbance at the excitation wavelength (λ), n the refractive index and D the integrated luminescence intensity. Subscripts “r” and “x” stand for reference and sample, respectively. References will be a quinine bisulfate in 1N sulfuric acid in aqueous solution (Qt=0.546)^1 and Ru(bpy)3 2C1 complexes in water solution (Qr=0.028)^2 for all complexes. A plot of integrated emission intensity (i.e. Dr) versus absorbance (i.e. Ar(λr)) yields a linear plot with a slope which can be equated to the reference quantum yield Qr. By analogy, for the unknown sample, a plot of integrated emission intensity (i.e. Dx) versus absorbance (i.e. Ax(λx)) yields a linear plot and Qx can then be evaluated. A minimum of at least two independent measurements will be averaged to derive a reliable value.

[3] = Luminescence lifetimes (TRIS buffer, deuterated water, 77K) and inner sphere water number q; settings: for τ^D / τ (77K): first component; for q / q, second species: inner sphere water molecules; for q: improved Horrock's equations, first species; for τ (77K) / τ (77K), second component: solid matrix at 77K (methanol/ethanol 1/4)
Method: Fluorescent decay signals can be acquired using an IBH DataStation Hub photon counting module and data analysis performed using the commercially available DAS 6 decay analysis software package from HORIBA Jobin Yvon IBH. Goodness of fit will be assessed by minimizing the reduced chi squared function, χ2, and a visual inspection of the weighted residuals. Each trace will use at least 10,000 points and the reported lifetime values result from at least three independent measurements.
In addition to the steady state emission spectra, the luminescence quantum yields and luminescence lifetimes of the Eu(III) complexes were also measured in aqueous solution with 0.1 M TRIS buffer pH=7.4 and in deuterated solution to estimate the number of inner sphere water molecule (i.e. q) using the improved Horrock's equations.
Luminescence lifetimes were also determined at 77K, in a solid matrix (Table 5), which have allowed us to determine whether back energy transfer between the donor triplet excited state and the acceptor manifold excited state of the lanthanide is present, or alternately whether quenching via low lying LMCT state occurs.

[4] = Stability titration (pEu) by competitive batch titration using DTPA; assay type: physicochemical; settings: for pEu value as compared to DTPA: in words
Method: (§1) Stability Titrations. The general procedure used to determine the pEu values of ligands was adapted from an already described study using Gd and are similar to that already reported for other complexes. Different volumes of a standardized DTPA stock solution were added to solutions of constant ligand, metal, and electrolyte concentrations. Concentrations of complexed ligand in each solution were determined by subtracting the remaining luminescence intensity after addition of DTPA to the initial luminescence intensity at identical pH and those concentrations were used as references for the analysis. Stability of compounds towards mM concentrations of EDTA and divalent cations will be assessed by incubation of the proposed molecules at nM concentration at room temperature in aqueous solutions of test ions. Time Resolved Fluorescent signal will be assessed at the outset of experiment and monitored over a minimum of 24 hours to determine signal change.

[5] = Stability testing in concentrated solutions of divalent cations and EDTA; assay type: physicochemical; settings: over 24 hrs
Method: as §1
Although these conditions represent concentrations that are in excess of those typically encountered in routine commercial use, they are a benchmark used in the high-throughput screening industry to evaluate these types of molecules. For comparison, stability testing of the commercialized Lumi4-Tb compound is shown (FIG. 3, top) and represents the stability benchmark for these types of molecules.

[6] = UV/visible absorption spectroscopy of Eu(III) complexes in TRIS buffer; assay type: physicochemical
Text: Extinction Coefficient. A series of solutions of varied concentrations will be prepared from the solids based on mass and purity. The absorbance of each of these solutions at both 340 nm and at the appropriate acceptor wavelength will be measured and plotted according to Beer's Law (A=εcL where A is absorbance, ε is the extinction coefficient in M^−1 cm^−1, c is concentration, and L is path length in cm) with the fitted linear regression slope equal to […] on a plot of A as a function of C.
Each of the spectra have absorption maxima around 335-340 nm (FIG. 2). Those bands are composed of two electronic transitions; at higher energy, a purely π-π* transition and, at slightly lower energy (around ca. 320 nm), a π-π* transition with some n-π* character, as evidenced previously from TD-DFT calculations. […] This interaction gives maxima blue-shifting from 341 nm for [Eu(H(2,2)-1,2-HOPO)]^0 to 334 nm for [Eu(H(17O5,2)-1,2-HOPO)]^0 (as low as 332 nm for)[Eu(5LIN^Me-1,2HOPO)2]^0).

[7] = Triplet excited state energy from phosphorescence of Gd complexes at 77K; assay type: physicochemical; settings: solid matrix (methanol/ethanol 1/4), using the Gd complexes
Method: Estimation of the energies of the ligand based triplet excited state were determined using the Gd(III) complexes. Gadolinium was chosen because it is a 4f^7 lanthanide cation having a similar 4f electronic configuration and size as the europium cation (4f^6), but lacking an accessible metal based low energy electronic excited state. At room temperature, only a broad weak emission centered between 380-400 nm can be seen for the Gd(III) complexes. […] At 77K, in solid matrix, an emission band at approx. 500 nm can be seen (FIG. 8). This emission, red-shifted compared to the singlet excited state, can be assigned to phosphorescence from the triplet excited state, lower in energy than the singlet excited state observed at room temperature. Selective time gated phosphorescence spectra (delay 0.1 ms) of the gadolinium complexes at 77K are depicted in FIG. 8.

[8] = competitive batch titration using DTPA in 0.1M TRIS pH = 7.4 and 0.1M KCl; cited from earlier work
[9] = cited from earlier work; for τ (D2O): first component where two are printed; for τ (H2O): first (longer) component; for τ (H2O), second component: second (shorter) component of biexponential decay; for q / q, second species: number of inner sphere water molecules; for q: first species
[10] = cited from earlier work; for λ: absorption maximum; for ε: extinction coefficient
[11] = quantum yield; cited from earlier work
[12] = listed as [Eu(H(4,2)-1,2HOPO)]^0
[13] = deuterated solution, listed as [Eu(H(4,2)-1,2HOPO)]^0
[14] = TRIS buffer pH = 7.4, listed as [Eu(H(4,2)-1,2HOPO)]^0
[15] = listed as [Eu(H(3,2)-1,2HOPO)]^0
[16] = deuterated solution, listed as [Eu(H(3,2)-1,2HOPO)]^0
[17] = TRIS buffer pH = 7.4, listed as [Eu(H(3,2)-1,2HOPO)]^0

## O=C(NCCN(CCNC(=O)c1cccc(=O)n1O)CCOCCOCCOCCN(CCNC(=O)c1cccc(=O)n1O)CCNC(=O)c1cccc(=O)n1O)c1cccc(=O)n1O [Eu(H11-3)]
[1]
  sensitization process efficiency: 40.2%
[1]; efficiency of metal centred luminescence
  η^Eu: 0.411
[1]; non-radiative rate constant
  knr: 882 s⁻¹
[1]; pure radiative luminescence lifetime, aqueous TRIS pH = 7.4
  τrad: 1630 μs
[1]; radiative rate constant
  kr: 615 s⁻¹
[1]; sensitization efficiency
  η^sens: 0.402
[2]
  øTot: 0.165
  Brightness: 2485 M⁻¹ cm⁻¹
  overall quantum yield (in words): comparatively high quantum yields
[2]; aqueous TRIS pH = 7.4, complexes with only one species
  ϕTot: 0.165
[2]; aqueous medium
  quantum yield in aqueous medium: 17%
[2]; aqueous quantum yield
  ϕTot: 0.165
[3]; aqueous TRIS pH = 7.4
  τ: 668 μs
[3]; deuterated solution
  τ^D: 888 μs
[3]; deuterated water
  τ^D: 888 μs
[3]; first (longer) component
  τ: 668 μs
[3]
  q: 0.1
  τ (77K): 765 μs
[4]; competitive batch titration using DTPA in 0.1M TRIS pH = 7.4 and 0.1M KCl
  pEu: 20.4
[4]
  pEu value as compared to DTPA: increased
[5]
  signal change in concentrated solutions of divalent cations and EDTA: significant signal loss
[6]; TRIS buffer pH = 7.4
  ε: 15,070 M^−1 · cm^−1
  λ^maxabs: 334 nm
[6]; absorption maximum
  λ: 334 nm
[6]; extinction coefficient, in M-1·cm-1
  ε: 15,070
[7]
  T0-0 (triplet excited state energy): 22,120 cm^−1

## O=C(NCCN(CCCCN(CCNC(=O)c1cccc(=O)n1O)CCNC(=O)c1cccc(=O)n1O)CCNC(=O)c1cccc(=O)n1O)c1cccc(=O)n1O [Eu(H4)]
[8]
  pEu: 18.4
[9]
  τ (D2O): 803 μs
  τ (D2O), second component: 338 μs
  τ (H2O): 649 μs
  τ (H2O), second component: 236 μs
  q: 0
  q, second species: 1.1
[2]; listed as [Eu(H(4,2)-1,2-HOPO)]^0
  øTot: 0.031
[2]; [12]
  øTot: 0.031
  Brightness: 555 M⁻¹ cm⁻¹
[2]
  overall quantum yield (in words): low quantum yields
[3]; [13]
  τ^D: 803; μs
  τ^D, second component: 338 μs
[3]; [12]
  q: 0;
  q, second species: 1.1
  τ (77K): 902; μs
  τ (77K), second component: 645 μs
[10]
  λ: 337 nm
  ε: 17,900 M^1 cm^−1
[4]
  pEu value as compared to DTPA: decreased
[11]
  ϕEu: 0.031
[6]; [14]
  ε: 17,900 M^−1 · cm^−1
  λ^maxabs: 337 nm
[7]; [12]
  T0-0 (triplet excited state energy): 22,390 cm^−1

## O=C(NCCN(CCCCN(CCNC(=O)c1cccc(=O)n1O)CCNC(=O)c1cccc(=O)n1O)CCNC(=O)c1cccc(=O)n1O)c1cccc(=O)n1O [Eu(H3)]
[8]
  pEu: 17.5
[9]
  τ (D2O): 811 μs
  τ (D2O), second component: 369 μs
  τ (H2O): 552 μs
  τ (H2O), second component: 253 μs
  q: 0.3
  q, second species: 1.0
[2]; [15]
  øTot: 0.037
  Brightness: 655 M⁻¹ cm⁻¹
[2]
  overall quantum yield (in words): low quantum yields
[3]; [16]
  τ^D: 811; μs
  τ^D, second component: 369 μs
[3]; listed as [Eu(H(3,2)-1,2-HOPO)]^0
  q: 0.3
[3]; [15]
  q: 0.3;
  q, second species: 1.0
  τ (77K): 1040; μs
  τ (77K), second component: 781 μs
[10]
  λ: 339 nm
  ε: 17,700 M^1 cm^−1
[4]
  pEu value as compared to DTPA: decreased
[4]; pEu difference
  decrease in stability relative to Eu(H8-2) and Eu(H11-3): 2.9 log unit
[11]
  ϕEu: 0.037
[6]; [17]
  ε: 17,700 M^−1 · cm^−1
  λ^maxabs: 339 nm
[7]; [15]
  T0-0 (triplet excited state energy): 21,900 cm^−1
